# Patent US20100273780A1, “SUBSTITUTED 8-HETEROARYL XANTHINES” (PGXHEALTH, LLC, priority 2003, published 2010)
# Target: T1, rat A2B receptors (rA2B) (Rattus norvegicus, UniProt P29276)
# T1 construct: expressed in transfected cells; host or cells: HEK-293 cells, stably transfected (G418 selection); membranes
# T1 sequence (P29276 1-332): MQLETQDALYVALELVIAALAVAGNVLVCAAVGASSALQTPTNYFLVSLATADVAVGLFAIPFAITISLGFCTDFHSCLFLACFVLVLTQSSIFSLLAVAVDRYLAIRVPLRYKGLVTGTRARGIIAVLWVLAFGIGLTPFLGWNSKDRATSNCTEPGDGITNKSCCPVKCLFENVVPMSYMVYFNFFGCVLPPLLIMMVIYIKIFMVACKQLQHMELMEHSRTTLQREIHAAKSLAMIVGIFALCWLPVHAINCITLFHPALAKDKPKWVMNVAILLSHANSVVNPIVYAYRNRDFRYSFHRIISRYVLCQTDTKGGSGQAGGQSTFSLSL
# Test: Radioligand competition binding (125I-ABOPX) at rat A2B receptors in HEK-293 membranes
# Settings: displacement of specific [125I]ABOPX binding at rat A2B receptors expressed in HEK-293 cells; read-out: RatA2B Ki
# Method: The plasmid was amplified in competent JM109 cells and plasmid DNA isolated using Wizard Megaprep columns (Promega Corporation, Madison, Wis.).
# Transfected HEK cells were grown under 5% CO2/[…] humidified atmosphere at a temperature of 37° C. Colonies were selected by growth of cells in 0.6 mg/mL G418. Transfected cells were maintained in DMEM supplemented with Hams F12 nutrient mixture (1/1), 10% newborn calf serum, 2 mM glutamine and containing 50 IU/mL penicillin, […], and 0.2 mg/mL Geneticin (G418, Boehringer Mannheim). Cells were cultured in 10 cm diameter round plates and subcultured when grown confluent (approximately after 72 hours).
# At A2B receptors: Confluent monolayers of HEK-A2B cells were washed with PBS followed by ice cold Buffer A (10 mM HEPES, 10 mM EDTA, pH 7.4) with protease inhibitors (10 μg/mL benzamidine, 100 μM phenylmethanesulfonyl fluoride, and 2 μg/mL of each aprotinin, pepstatin and leupeptin). The cells were homogenized in a Polytron (Brinkmann) for 20 s, centrifuged at 30,000×g, and the pellets washed twice with buffer HE (10 mM HEPES, 1 mM EDTA, pH 7.4 with protease inhibitors). The final pellet was resuspended in buffer HE, supplemented with 10% sucrose and frozen in aliquots at −80° C. For binding assays membranes were thawed and diluted 5-10 fold with HE to a final protein concentration of approximately 1 mg/mL. To determine protein concentrations, membranes, and bovine serum albumin standards were dissolved in 0.2% NaOH/0.01% SDS and protein determined using fluorescamine fluorescence. Stowell, C.
# After incubation, 20 minutes at room temperature, 50 μL, of 10 mg/mL Na-metabisulfite in water was added to quench the reaction. The reaction mixture was applied to a C18 HPLC column, eluting with a mixture of methanol and 5 mM phosphate, pH 6.0. After 5 min at 35% methanol, the methanol concentration was ramped to 100% over 15 min.
# Radioligand binding experiments were performed in triplicate with 20-25 μg membrane protein in a total volume of 0.1 mL HE buffer supplemented with 1 U/mL adenosine deaminase and 5 mM MgCl2. The incubation time was 3 h at 21° C. Nonspecific binding was measured in the presence of 100 μM NECA. […] Membranes were filtered on Whatman GF/C filters using a Brandel cell harvester (Gaithersburg, Md.) and washed 3 times over 15-20 seconds with ice cold buffer (10 mM Tris, 1 mM MgCl2, pH 7.4). Bmax and KD values were calculated by Marquardt's nonlinear least squares interpolation for single a site binding models. Marquardt, D. M., J. Soc. Indust. Appl. […] Ki values for different compounds were derived from IC50 values as described. Linden, J., J. Cycl. Nucl. […] Data from replicate experiments are tabulated as means±SEM.
row,Compound,Ki [nM]
1,"1,3-Dipropyl-8-[6-[N-(isoxazole-5-carbonyl)methylamino]-3-pyridyl)xanthine [Compound 110]",< 500
2,"1,3-Dipropyl-8-[6-[N-isonicotinoylmethylamino]-3-pyridyl)xanthine [Compound 49]",< 100
3,"CCCn1c(=O)c2[nH]c(-c3ccc(NCC)nc3)nc2n(CCC)c1=O [Compound 3, 1,3-Dipropyl-8-(6-ethylamino-3-pyridyl)xanthine]",< 500
4,"1,3-Diethyl-8-[6-[(N-phenylcarbamoyl)methylamino]-3-pyridyl)xanthine [Compound 61]",< 5000
5,"1,3-Diethyl-8-[6-[N-nicotinoylethylamino]-3-pyridyl)xanthine [Compound 62]",< 500
6,"CCCn1c(=O)c2[nH]c(-c3ccc(NCC(OC)OC)nc3)nc2n(CCC)c1=O [Compound 14, 1,3-Dipropyl-8-[6-(2,2-dimethoxyethyl)amino-3-pyridyl]xanthine]",< 500
7,"CCCn1c(=O)c2[nH]c(-c3ccc(NCCOCCO)nc3)nc2n(CCC)c1=O [Compound 18, 1,3-Dipropyl-8-[[6-(2-hydroxyethoxy)ethylamino]-3-pyridy]xanthine]",< 500
8,"1,3-diallyl-8-[6-(N-(6-chloronicotinoyl)methylamino)-3-pyridyl]xanthine [Compound 120]",< 100
9,"CCCn1c(=O)c2[nH]c(-c3ccc(N4CCCC4)nc3)nc2n(CCC)c1=O [Compound 8, 1,3-Dipropyl-8-(6-pyrrolidinylpyrid-3-yl)xanthine]",< 500
10,"CCn1c(=O)c2[nH]c(-c3ccc(NCc4cccc(OC)c4)nc3)nc2n(CC)c1=O [Compound 75, 1,3-Diethyl-8-[6-(3-methoxybenzylamino)-3-pyridyl]xanthine]",< 100
11,"CCCn1c(=O)c2[nH]c(-c3ccc(NCCO)nc3)nc2n(CCC)c1=O [Compound 4, 1,3-Dipropyl-8-(6-(2-hydroxyethyl)amino-3-pyridyl)xanthine]",< 500
12,1-Cyclopropylmethyl-3-ethyl-8-[6-[N-(6-chloronicotinoyl)methylamino]-3-pyridyl)xanthine [Compound 145],< 100
13,"CCCn1c(=O)c2[nH]c(-c3ccc(NC4CC4)nc3)nc2n(CCC)c1=O [Compound 23, 1,3-Dipropyl-8-(6-cyclopropylamino-3-pyridyl]xanthine]",< 500
14,CCn1c(=O)c2[nH]c(-c3ccc(N(CCOC)C(=O)Nc4ccncc4)nc3)nc2n(CC)c1=O [Compound 95],< 500
15,"CCCn1c(=O)c2[nH]c(-c3ccc(N(C)C(=O)c4cc(C)on4)nc3)nc2n(CCC)c1=O [Compound 111, 1,3-Dipropyl-8-[6-[N-(5-methylisoxazol-3-yl-3-carbonyl)methylamino]-3-pyridyl)xanthine]",< 100
16,"CN(C(=O)c1cccnc1)c1ccc(-c2nc3c([nH]2)c(=O)n(CC2CC2)c(=O)n3CC2CC2)cn1 [Compound 69, 1,3-Dicylopropylmethyl-8-[6-[N-nicotinoylmethylamino]-3-pyridyl)xanthine]",< 500
17,"CCn1c(=O)c2[nH]c(-c3ccc(NCCN4CCCC4)nc3)nc2n(CC)c1=O [Compound 81, 1,3-Diethyl-8-[6-[2-(1-pyrrolidinyl)-ethylamino]-3-pyridyl]xanthine]",< 100
18,"CCn1c(=O)c2[nH]c(-c3ccc(NCc4ccccn4)nc3)nc2n(CC)c1=O [Compound 73, 1,3-Diethyl-8-[6-(2-pyridylmethylamino)-3-pyridyl]xanthine]",< 100
19,"CCCn1c(=O)c2[nH]c(-c3ccc(Cl)nc3)nc2n(CCC)c1=O [Compound 1, 1,3-Dipropyl-8-(6-chloro-3-pyridyl)xanthine]",< 500

row,Compound,Ki [nM]
1,"CCCn1c(=O)c2[nH]c(-c3ccc(N4CCNCC4)nc3)nc2n(CCC)c1=O [Compound 19, 1,3-Dipropyl-8-(6-piperazino-3-pyridyl)xanthine]",< 500
2,"CCn1c(=O)c2[nH]c(-c3ccc(N(CC4CC4)C(=O)c4cccnc4)nc3)nc2n(CC)c1=O [Compound 144, 1,3-Diethyl-8-[6-[N-nicotinoylcyclopropylmethylamino]-3-pyridyl)xanthine]",< 500
3,"1,3-Diethyl-8-[6-[N-(isoxazole-5-carbonyl)methylamino]-3-pyridyl)xanthine [Compound 108]",< 500
4,"CCCn1c(=O)c2[nH]c(-c3ccc(NC4CCCC4)nc3)nc2n(CCC)c1=O [Compound 39, 1,3-Dipropyl-8-[6-(cyclopentylamino)-3-pyridyl]xanthine]",< 5000
5,"CCCn1c(=O)c2[nH]c(-c3ccc(NCCNC(C)=O)nc3)nc2n(CCC)c1=O [Compound 83, 1,3-Dipropyl-8-(6-(2-acetylaminoethyl)amino-3-pyridyl)xanthine]",< 500
6,"CCCn1c(=O)c2[nH]c(-c3ccc(NC)nc3)nc2n(CCC)c1=O [Compound 10, 1,3-Dipropyl-8-(6-methylamino-3-pyridyl)xanthine]",< 500
7,"CCn1c(=O)c2[nH]c(-c3ccc(NCc4cccnc4)nc3)nc2n(CC)c1=O [Compound 74, 1,3-Diethyl-8-[6-(3-pyridylmethylamino)-3-pyridyl]xanthine]",< 100
8,"CCCn1c(=O)c2[nH]c(-c3ccc(N4CCCNCC4)nc3)nc2n(CCC)c1=O [Compound 58, 1,3-Dipropyl-8-[6-(hexahydro-1,4-diazaepin-1-yl)-3-pyridyl]xanthine]",< 100
9,"CCN(C(=O)c1cccnc1)c1ccc(-c2nc3c([nH]2)c(=O)n(CC2CC2)c(=O)n3CC2CC2)cn1 [Compound 70, 1,3-Dicylopropylmethyl-8-[6-[N-nicotinoylethylamino]-3-pyridyl)xanthine]",< 500
10,"CCCn1c(=O)c2[nH]c(-c3ccc(NCc4ccc(CN)cc4)nc3)nc2n(CCC)c1=O [Compound 21, 1,3-Dipropyl-8-[6-(4-aminomethylbenzylamino)-3-pyridyl]xanthine]",< 500
11,"CCCn1c(=O)c2[nH]c(-c3ccc(NCCc4ccccn4)nc3)nc2n(CCC)c1=O [Compound 78, 1,3-Dipropyl-8-[6-[2-(2-pyridyl)-ethylamino]-3-pyridyl]xanthine]",< 100
12,"CCCn1c(=O)c2[nH]c(-c3ccc(N4CCOCC4)nc3)nc2n(CCC)c1=O [Compound 16, 1,3-Dipropyl-8-(6-morpholino-3-pyridyl)xanthine]",< 100
13,1-Cyclopropyl-3-propyl-8-[6-[N-nicotinoylmethylamino]-3-pyridyl)xanthine [Compound 129],< 100
14,"1,3-Dipropyl-8-[6-[N-(2-pyrazinecarbonyl)methylamino]-3-pyridyl)xanthine [Compound 109]",< 500
15,"CNc1ccc(-c2nc3c([nH]2)c(=O)n(C)c(=O)n3C)cn1 [Compound 97, 1,3-Dimethyl-8-(6-methylamino-3-pyridyl)xanthine]",< 500
16,"1,3-Diethyl-8-[6-(N-(6-chloronicotinoyl)methylamino)-3-pyridyl]xanthine [Compound 130]",< 100
17,"CCCn1c(=O)c2[nH]c(-c3ccc(NCC(C)O)nc3)nc2n(CCC)c1=O (centres unmarked) [Compound 13, 1,3-Dipropyl-8-[6-(2-hydroxypropyl)amino-3-pyridyl]xanthine]",< 500
18,"CCCn1c(=O)c2[nH]c(-c3ccc(N(C)C(=O)c4ccc(C(F)(F)F)nc4)nc3)nc2n(CCC)c1=O [Compound 121, 1,3-dipropyll-8-[6-(N-[6-(trifluoromethyl)nicotinoyl]methylamino)-3-pyridyl]xanthine]",< 100
19,"CCCn1c(=O)c2[nH]c(-c3ccc(Cl)nc3)nc2n(CCc2ccc(OC)cc2)c1=O [Compound 54, 1-propyl-3-(4-methoxyphenyl)ethyl-8-(6-chloro-3-pyridyl)xanthine]",< 5000
